Assay results from US6268220A, “Diagnostic method for atherosclerosis” (Washington University, priority 1996, dated 2001).
Entries after “also recorded” stand apart in the source; their conditions may differ.

Tests used:
[1] = tested on: apolipoprotein B100 of LDL; experiment: Production of 3-chlorotyrosine in LDL modified by different oxidation systems; format: biochemical, human; conditions: 37° C.; for 3-chlorotyrosine content of LDL exposed to oxidation system: LDL 512 μg protein/ml, pH 7.4, 60 min or 24 h, FIG. 2, result in words
Description: FIG. 2 show production of 3-chlorotyrosine in LDL modified by different oxidation systems. LDL (512 μg protein/ml) was incubated at 37° C. in phosphate buffered saline (10 mM sodium phosphate, 150 mM NaCl, pH 7.4) alone (Control) or with the indicated oxidation system. The complete myeloperoxidase-H2 O2 --Cl^- system consisted of 20 nM myeloperoxidase and 100 μM H2 O2. HOCl was used at 100 μM. Horseradish peroxidase (10 μg/ml and lactoperoxidase (10 μg/ml) were used with 100 μM H2 O2. LDL was exposed to myeloperoxidase, HOCl, horseradish peroxidase and lactoperoxidase for 60 min.
All other oxidation reactions were carried out for 24 h. Final concentrations of oxidants were: peroxynitrite, 100 μM; CuSO4, 10 μM; CuSO4 and H2 O2, 100 μM and 2 mM, respectively; FeSO4, 10 μM; hemin, 10 μM; and glucose, 100 mM. LDL oxidation by lipoxygenase was performed in 50 mM borate, 150 mM NaCl supplemented with phospholipase A2 as previously described (45).
Reaction products were delipidated, acid hydrolyzed, and the 3-chlorotyrosine content of the amino acid hydrolysate determined by stable isotope dilution GC-MS analysis. Values are the mean of duplicate determinations. […] HRP, horseradish peroxidase; MPO, myeloperoxidase-peroxidase.
The complete system consisted of Buffer B (20 mM Na[PO4 ], pH 7.0, 100 μM DTPA) supplemented with LDL (512 μg protein/ml), myeloperoxidase (MPO; 40 nM), H2 O2 (100 μM) and Cl^- (as NaCl; 100 mM). After a 1 h incubation at 37° C., the 3-chlorotyrosine content was determined by stable isotope dilution GC-MS as described under "Methods." The limit of detection of the assay was <0.1 umol 3-chlorotyrosine per mol L-tyrosine. Values are the mean of duplicate determinations.

myeloperoxidase = biological target: T1, myeloperoxidase (Homo sapiens, UniProt P05164); experiment: Chlorination of apolipoprotein B100 of LDL by the myeloperoxidase-H2O2-Cl- system (3-chlorotyrosine by GC-MS); format: biochemical; conditions: for 3-Chlorotyrosine/L-Tyrosine: Complete system (LDL 512 μg protein/ml, MPO 40 nM, H2O2 100 μM, Cl- 100 mM) plus additive at printed concentration, 1 h, 37° C., complete system alone 50, detection limit <0.1
T1 construct: light and heavy chains, homodimer) with H2O2, chloride and human LDL as substrate
T1 sequence (P05164 49-745): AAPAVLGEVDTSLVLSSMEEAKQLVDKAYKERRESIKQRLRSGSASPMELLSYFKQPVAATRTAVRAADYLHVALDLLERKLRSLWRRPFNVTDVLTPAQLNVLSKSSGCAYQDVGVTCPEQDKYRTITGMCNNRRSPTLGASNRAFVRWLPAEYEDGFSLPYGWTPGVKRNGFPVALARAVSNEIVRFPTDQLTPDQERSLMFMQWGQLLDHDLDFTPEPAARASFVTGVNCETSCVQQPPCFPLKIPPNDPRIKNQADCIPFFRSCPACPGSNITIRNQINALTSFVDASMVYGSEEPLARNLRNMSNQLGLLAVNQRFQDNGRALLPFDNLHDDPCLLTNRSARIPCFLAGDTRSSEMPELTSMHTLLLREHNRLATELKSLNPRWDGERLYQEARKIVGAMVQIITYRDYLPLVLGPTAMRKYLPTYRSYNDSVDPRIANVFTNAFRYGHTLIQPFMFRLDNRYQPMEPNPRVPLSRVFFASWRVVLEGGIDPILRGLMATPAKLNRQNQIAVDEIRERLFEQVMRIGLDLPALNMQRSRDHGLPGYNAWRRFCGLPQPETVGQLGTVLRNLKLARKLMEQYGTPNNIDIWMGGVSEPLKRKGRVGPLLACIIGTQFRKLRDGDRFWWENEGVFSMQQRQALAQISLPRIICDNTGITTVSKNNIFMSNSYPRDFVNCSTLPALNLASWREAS
Description: (§1) General Procedures--All glassware was rendered chlorine-demand free (<3% consumption of 1 mM HOCl in a 10 min incubation at 37° C. within a gas-tight vial as monitored by the oxidation of iodide to triiodide) prior to use (12,25,27). […] Myeloperoxidase (donor: hydrogen peroxide, oxidoreductase, EC 1.11.1.7) was isolated (final A430 /A280 ratio of 0.6) as previously described (28,29). Enzyme concentration was determined spectrophotometrically ε430 =[…] cm^-1; ref. 30). Human neutrophils were isolated by buoyant density centrifugation (31). Medium A (Hank's balanced salt solution (magnesium-, calcium-, phenol- and bicarbonate-free; Gibco-BRL, Gaithersburg, Md.), pH 7.2, supplemented with 100 μM diethylenetriamine pentaacetic acid (DTPA) was used for neutrophil isolation and experiments.
Following the addition of 10 pmol 3-[^13 C6 ]chlorotyrosine and 100 nmol L-[^13 C6 ]tyrosine, delipidated and dialyzed protein (~1-4 mg) suspended in Buffer B was dried under vacuum in a glass reaction vial. Each vial then received 0.5 ml HBr (6 N) containing 1% phenol. […]
Mass Spectrometric Analysis--n-Propyl, perheptafluorobutyl (HFB) and n-propyl, perpentafluoroproprionyl (PFP) derivatives of amino acids were prepared (38) and analyzed on a Hewlett Packard 5890 Gas Chromatograph interfaced with a Hewlett Packard 5988A Mass Spectrometer equipped with extended mass range. […]
Amino acids were quantified utilizing stable isotope dilution GC-MS analysis in the negative-ion chemical ionization mode (25,26). 3-Chlorotyrosine was monitored as its n-propyl-per-HFB derivative utilizing selected ion monitoring of the base peak at mass-to-charge ratio (m/z) 451 (M^.- -HFB), another prominent ion at m/z 629 (M^.- -HF), and their isotopically labeled internal standard ions at m/z 457 and 635, respectively.
L-Tyrosine was monitored as its n-propyl-per-HFB derivative using the base peak at m/z 417 (M^.- -HFB), another major ion at m/z 595 (M^.- -HF), and their labeled internal standard ions at m/z 423 and 601, respectively. […]

Human neutrophils = experiment: Formation of 3-chlorotyrosine in LDL exposed to activated human phagocytes; format: cell-based; conditions: FIG. 1
Description: Human neutrophils (1×10^6 /ml) were incubated at 37° C. in Hank's Balanced Salt Solution supplemented with DTPA (100 μM) and LDL (512 μg protein/ml). Neutrophils were activated with phorbol ester (PMA; 200 nM) and maintained in suspensions by intermittent inversion (Complete neutrophil system).
Following a 60 min incubation, neutrophils were removed by centrifugation. The supernatant was delipidated and dialyzed, ^13 C-labeled internal standards were added, and the samples were then subjected to acid hydrolysis. The content of L-tyrosine and 3-chlorotyrosine in acid hydrolysates were determined by stable isotope dilution GC-MS analysis as described under "Method", below.
Additions or deletions to the complete system were as indicated. The final concentrations of additions were:
3-Chlorotyrosine content of LDL is normalized to the content of the precursor amino acid L-tyrosine. Values are the mean of duplicate determinations.
as §1

[2] = PMA-activated human neutrophils 1×10^6/ml, 60 min, 37° C., additive to complete neutrophil system

Q: `OCl` [HOCl, hypochlorous acid] was tested. Which “3-chlorotyrosine content of LDL exposed to oxidation system” value (“3-chlorotyrosine content of LDL exposed” below) [1] did it give?
A: resulted in 3-chlorotyrosine formation; also recorded: Significant levels

Q: And the 3-Chlorotyrosine/L-Tyrosine ([1]; LDL + HOCl (100 μM), no enzyme, 1 h)?
A: 68 umol/mol

Q: `[N-]=[N+]=[N-].[Na+]` [NaN3] was tested. Which 3-Chlorotyrosine/L-Tyrosine (myeloperoxidase) did it give?
A: 0 umol/mol

Q: And the “3-chlorotyrosine production in LDL incubated with activated phagocytes” value (Human neutrophils; [2])?
A: inhibited

Q: How did the “3-chlorotyrosine content of LDL exposed” value [1] turn out when `O=S(=O)([O-])[O-].[Cu+2]` [copper, CuSO4] was run?
A: little change

Q: Which “3-chlorotyrosine production in LDL incubated with activated phagocytes” value (Human neutrophils; ionomycin (1 μM) added together with superoxide dismutase (10 μg/ml)) does the source give for `C[C@H](CCC(=O)O)C[C@H](C)C[C@H](C)C(=O)/C=C(\O)[C@H](C)C[C@H](C)C/C=C/[C@@H](C)[C@@H](O)[C@@H](C)[C@@H](O)C[C@@H]1CC[C@@](C)([C@H]2CC[C@@](C)([C@@H](C)O)O2)O1` [ionomycin] here?
A: further generation

Q: `O=S(=O)([O-])[O-].[Fe+2]` [iron, FeSO4] was tested. Which “3-chlorotyrosine content of LDL exposed” value [1] did it give?
A: little change

Q: `O=NOO` [peroxynitrite] was tested. Which “3-chlorotyrosine content of LDL exposed” value [1] did it give?
A: little change

Q: Which “3-chlorotyrosine content of LDL exposed” value [1] does the source give for glucose here?
A: little change

Q: horseradish peroxidase was tested. Which “3-chlorotyrosine content of LDL exposed” value [1] did it give?
A: little change

Q: For lactoperoxidase, which “3-chlorotyrosine content of LDL exposed” value [1] is on record?
A: little change

Q: For “superoxide dismutase: catalyzes the conversion of O2.- into H2O2”, which “3-chlorotyrosine production in LDL incubated with activated phagocytes” value (Human neutrophils; [2]) is on record?
A: further generation

B1: Catalase: a peroxide scavenger (protein, UniProt P00432 2-527, looked up)
Catalase: ADNRDPASDQMKHWKEQRAAQKPDVLTTGGGNPVGDKLNSLTVGPRGPLLVQDVVFTDEMAHFDRERIPERVVHAKGAGAFGYFEVTHDITRYSKAKVFEHIGKRTPIAVRFSTVAGESGSADTVRDPRGFAVKFYTEDGNWDLVGNNTPIFFIRDALLFPSFIHSQKRNPQTHLKDPDMVWDFWSLRPESLHQVSFLFSDRGIPDGHRHMNGYGSHTFKLVNANGEAVYCKFHYKTDQGIKNLSVEDAARLAHEDPDYGLRDLFNAIATGNYPSWTLYIQVMTFSEAEIFPFNPFDLTKVWPHGDYPLIPVGKLVLNRNPVNYFAEVEQLAFDPSNMPPGIEPSPDKMLQGRLFAYPDTHRHRLGPNYLQIPVNCPYRARVANYQRDGPMCMMDNQGGAPNYYPNSFSAPEHQPSALEHRTHFSGDVQRFNSANDDNVTQVRTFYLKVLNEEQRKRLCENIAGHLKDAQLFIQKKAVKNFSDVHPEYGSRIQALLDKYNEEKPKNAVHTYVQHGSHLSAREKANL
Q: Which results are given for B1?
A: 3-Chlorotyrosine/L-Tyrosine (myeloperoxidase): 0 umol/mol; Chlorination of apolipoprotein B100 (3-chlorotyrosine production) by myeloperoxidase-H2O2-Cl- system (myeloperoxidase; additive to complete system, result in words): blocked; 3-chlorotyrosine production in LDL incubated with activated phagocytes (Human neutrophils; [2]): inhibited
